Experimental data: ChEMBL document CHEMBL4311992, “Discovery of 3-(((9H-purin-6-yl)amino)methyl)-4,6-dimethylpyridin-2(1H)-one derivatives as novel tubulin polymerization inhibitors for treatment of cancer” (Eur J Med Chem, 2019)
The source made the active and inactive calls. The calls are words filed in the database; no cut-off is given here.

Tests used:
[1] = system: RAC-beta serine/threonine-protein kinase (Homo sapiens), P31751 [S474D]; experiment: Inhibition of recombinant full-length human PKBbeta S474D mutant (120 to end residues) assessed as residual activity at 10 uM using GRPRTSSFAEGKK as substrate measured after 40 mins in presence of [gamma33P]ATP by scintillation counting method
Chain of RAC-beta serine/threonine-protein kinase (Homo sapiens), P31751 [S474D] (P31751 whole entry S474D): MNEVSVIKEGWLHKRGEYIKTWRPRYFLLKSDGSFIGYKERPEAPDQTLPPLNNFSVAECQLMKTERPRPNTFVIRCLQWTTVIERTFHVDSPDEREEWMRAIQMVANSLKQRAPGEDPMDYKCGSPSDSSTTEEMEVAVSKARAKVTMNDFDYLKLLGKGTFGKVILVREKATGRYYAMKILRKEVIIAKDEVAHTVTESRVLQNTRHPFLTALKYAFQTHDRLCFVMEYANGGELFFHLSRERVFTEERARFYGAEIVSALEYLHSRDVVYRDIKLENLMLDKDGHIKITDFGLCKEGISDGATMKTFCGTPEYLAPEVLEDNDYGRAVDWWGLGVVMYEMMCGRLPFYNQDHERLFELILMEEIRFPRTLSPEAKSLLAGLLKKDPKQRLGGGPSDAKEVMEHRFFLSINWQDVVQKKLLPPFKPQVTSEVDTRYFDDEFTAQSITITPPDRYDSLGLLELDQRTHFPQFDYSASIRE

[2] = target: Cyclin-dependent kinase-like 2 (Homo sapiens) (UniProt Q92772); experiment: Inhibition of human CDKL2 assessed as residual activity at 10 uM by radiometric method
[3] = Toxicity in nude BALB/c mouse assessed as change in globulin level at 40 to 80 mg/kg, po once daily for 4 weeks measured post-last dose; assay type: organism-based; details: in vivo, 672 h
[4] = target: Wee1-like protein kinase 2 (Homo sapiens) (UniProt P0C1S8); experiment: Inhibition of recombinant full-length human WEE1b assessed as residual activity at 10 uM using LSNLYHQGKFLQTFCGSPLYRRR as substrate measured after 120 mins in presence of [gamma33P]ATP by scintillation counting method
Chain of Wee1-like protein kinase 2 (Homo sapiens) (P0C1S8 whole entry, looked up, the tested form may be a part): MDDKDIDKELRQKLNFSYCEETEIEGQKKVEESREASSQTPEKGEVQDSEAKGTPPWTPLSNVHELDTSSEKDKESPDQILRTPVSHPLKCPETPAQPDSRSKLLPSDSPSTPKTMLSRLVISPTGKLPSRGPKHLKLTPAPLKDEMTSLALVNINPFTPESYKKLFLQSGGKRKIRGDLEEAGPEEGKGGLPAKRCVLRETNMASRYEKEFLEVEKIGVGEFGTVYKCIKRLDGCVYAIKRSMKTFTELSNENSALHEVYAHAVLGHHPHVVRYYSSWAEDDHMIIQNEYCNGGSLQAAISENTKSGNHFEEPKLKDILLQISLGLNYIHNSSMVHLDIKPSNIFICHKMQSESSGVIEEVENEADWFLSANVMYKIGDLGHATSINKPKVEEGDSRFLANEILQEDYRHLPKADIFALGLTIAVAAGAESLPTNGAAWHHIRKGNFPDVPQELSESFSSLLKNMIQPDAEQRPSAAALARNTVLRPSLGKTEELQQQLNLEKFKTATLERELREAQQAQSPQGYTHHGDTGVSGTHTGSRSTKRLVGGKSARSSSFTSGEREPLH

[5] = target: Myotonin-protein kinase (Homo sapiens) (UniProt Q09013); experiment: Inhibition of recombinant human DMPK (1 to 549 residues) assessed as residual activity at 10 uM using KKSRGDYMTMQIG as substrate measured after 40 mins in presence of [gamma33P]ATP by scintillation counting method
HCT-116 [6] = experiment: Antitumor activity against human HCT116 cells xenografted in nude BALB/c mouse assessed as tumor growth inhibition at 40 mg/kg, po administered once daily for 4 weeks measured post-last dose relative to control; assay type: functional; details: HCT-116, po, 672 h, read-out: TGI
[7] = target: Serine/threonine-protein kinase PLK3 (Homo sapiens) (UniProt Q9H4B4); experiment: Inhibition of recombinant human Plk3 (19 to 301 residues) assessed as residual activity at 10 uM using casein as substrate measured after 40 mins in presence of [gamma33P]ATP by scintillation counting method
Chain of Serine/threonine-protein kinase PLK3 (Homo sapiens) (Q9H4B4 whole entry, looked up, the tested form may be a part): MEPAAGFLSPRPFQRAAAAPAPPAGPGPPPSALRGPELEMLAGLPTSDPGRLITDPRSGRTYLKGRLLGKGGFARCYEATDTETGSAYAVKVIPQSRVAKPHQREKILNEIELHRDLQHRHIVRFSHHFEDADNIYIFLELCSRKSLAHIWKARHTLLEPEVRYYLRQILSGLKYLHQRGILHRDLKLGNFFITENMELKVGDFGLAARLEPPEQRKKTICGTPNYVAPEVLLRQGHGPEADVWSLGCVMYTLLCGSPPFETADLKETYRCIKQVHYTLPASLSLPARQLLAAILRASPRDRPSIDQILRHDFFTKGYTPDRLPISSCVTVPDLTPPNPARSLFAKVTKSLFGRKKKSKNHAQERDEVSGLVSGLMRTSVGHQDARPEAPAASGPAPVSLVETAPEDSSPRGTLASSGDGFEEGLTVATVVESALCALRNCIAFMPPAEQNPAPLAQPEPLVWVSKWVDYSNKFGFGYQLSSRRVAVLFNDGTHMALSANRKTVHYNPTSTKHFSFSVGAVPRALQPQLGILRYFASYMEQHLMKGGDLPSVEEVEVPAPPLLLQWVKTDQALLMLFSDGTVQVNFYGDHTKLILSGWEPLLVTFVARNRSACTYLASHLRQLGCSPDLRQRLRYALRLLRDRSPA

[8] = target: Serine/threonine-protein kinase SIK1 (Homo sapiens) (UniProt P57059); experiment: Inhibition of human SIK (1 to 281 residues) using AMARAASAAALARRR as substrate measured after 40 mins in presence of [gamma33P]ATP by scintillation counting method; parameters: scale not given: the % may be the effect or the level left
Chain of Serine/threonine-protein kinase SIK1 (Homo sapiens) (P57059 whole entry, the tested form may be a part): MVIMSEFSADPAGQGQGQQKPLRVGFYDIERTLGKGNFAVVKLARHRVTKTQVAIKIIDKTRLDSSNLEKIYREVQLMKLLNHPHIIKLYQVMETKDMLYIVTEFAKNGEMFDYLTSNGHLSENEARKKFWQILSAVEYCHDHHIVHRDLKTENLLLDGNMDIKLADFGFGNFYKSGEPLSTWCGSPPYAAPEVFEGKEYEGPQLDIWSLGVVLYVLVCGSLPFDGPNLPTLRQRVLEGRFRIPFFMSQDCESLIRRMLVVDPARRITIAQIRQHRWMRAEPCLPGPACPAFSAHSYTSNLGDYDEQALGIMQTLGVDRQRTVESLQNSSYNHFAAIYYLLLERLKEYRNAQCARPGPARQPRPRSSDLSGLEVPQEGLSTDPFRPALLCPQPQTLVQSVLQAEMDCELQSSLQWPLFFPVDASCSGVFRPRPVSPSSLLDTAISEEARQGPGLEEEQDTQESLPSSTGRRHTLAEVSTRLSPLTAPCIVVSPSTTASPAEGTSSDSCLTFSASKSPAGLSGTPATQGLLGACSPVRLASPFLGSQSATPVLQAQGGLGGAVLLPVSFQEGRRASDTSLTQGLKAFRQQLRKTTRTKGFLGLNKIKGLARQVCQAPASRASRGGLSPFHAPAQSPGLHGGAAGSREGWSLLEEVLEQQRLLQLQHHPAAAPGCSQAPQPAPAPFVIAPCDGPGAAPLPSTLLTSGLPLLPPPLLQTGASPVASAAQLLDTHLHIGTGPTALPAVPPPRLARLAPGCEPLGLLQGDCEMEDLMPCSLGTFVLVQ

[9] = target: Activin receptor type-1-like (Homo sapiens) (UniProt P37023); experiment: Inhibition of recombinant human ALK1 (142 to end residues) assessed as residual activity at 10 uM using casein as substrate measured after 40 mins in presence of [gamma33P]ATP by scintillation counting method
Chain of Activin receptor type-1-like (Homo sapiens) (P37023 whole entry): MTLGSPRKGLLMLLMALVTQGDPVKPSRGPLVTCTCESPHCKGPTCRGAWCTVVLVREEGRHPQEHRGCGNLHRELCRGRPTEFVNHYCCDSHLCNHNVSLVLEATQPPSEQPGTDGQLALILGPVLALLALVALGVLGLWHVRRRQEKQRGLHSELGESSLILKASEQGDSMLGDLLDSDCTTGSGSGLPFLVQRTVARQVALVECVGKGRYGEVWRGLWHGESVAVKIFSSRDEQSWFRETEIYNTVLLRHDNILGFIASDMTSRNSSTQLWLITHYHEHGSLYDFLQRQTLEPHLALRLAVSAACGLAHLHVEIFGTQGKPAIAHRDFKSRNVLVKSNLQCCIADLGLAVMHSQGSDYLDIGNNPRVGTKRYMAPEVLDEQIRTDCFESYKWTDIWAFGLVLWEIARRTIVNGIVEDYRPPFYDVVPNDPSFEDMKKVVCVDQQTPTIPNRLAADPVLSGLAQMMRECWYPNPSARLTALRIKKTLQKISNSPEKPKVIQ

[10] = system: Serine/threonine-protein kinase Nek4 (Homo sapiens), P51957 [P225A]; experiment: Inhibition of recombinant full-length human NEK4 P225A mutant assessed as residual activity at 10 uM using myelin basic protein as substrate measured after 40 mins in presence of [gamma33P]ATP by scintillation counting method
[11] = target: Serine/threonine-protein kinase D3 (Homo sapiens) (UniProt O94806); experiment: Inhibition of recombinant full-length human PKD3 assessed as residual activity at 10 uM using KKLRRTLSVA as substrate measured after 40 mins in presence of [gamma33P]ATP by scintillation counting method
Chain of Serine/threonine-protein kinase D3 (Homo sapiens) (O94806 whole entry, the tested form may be a part): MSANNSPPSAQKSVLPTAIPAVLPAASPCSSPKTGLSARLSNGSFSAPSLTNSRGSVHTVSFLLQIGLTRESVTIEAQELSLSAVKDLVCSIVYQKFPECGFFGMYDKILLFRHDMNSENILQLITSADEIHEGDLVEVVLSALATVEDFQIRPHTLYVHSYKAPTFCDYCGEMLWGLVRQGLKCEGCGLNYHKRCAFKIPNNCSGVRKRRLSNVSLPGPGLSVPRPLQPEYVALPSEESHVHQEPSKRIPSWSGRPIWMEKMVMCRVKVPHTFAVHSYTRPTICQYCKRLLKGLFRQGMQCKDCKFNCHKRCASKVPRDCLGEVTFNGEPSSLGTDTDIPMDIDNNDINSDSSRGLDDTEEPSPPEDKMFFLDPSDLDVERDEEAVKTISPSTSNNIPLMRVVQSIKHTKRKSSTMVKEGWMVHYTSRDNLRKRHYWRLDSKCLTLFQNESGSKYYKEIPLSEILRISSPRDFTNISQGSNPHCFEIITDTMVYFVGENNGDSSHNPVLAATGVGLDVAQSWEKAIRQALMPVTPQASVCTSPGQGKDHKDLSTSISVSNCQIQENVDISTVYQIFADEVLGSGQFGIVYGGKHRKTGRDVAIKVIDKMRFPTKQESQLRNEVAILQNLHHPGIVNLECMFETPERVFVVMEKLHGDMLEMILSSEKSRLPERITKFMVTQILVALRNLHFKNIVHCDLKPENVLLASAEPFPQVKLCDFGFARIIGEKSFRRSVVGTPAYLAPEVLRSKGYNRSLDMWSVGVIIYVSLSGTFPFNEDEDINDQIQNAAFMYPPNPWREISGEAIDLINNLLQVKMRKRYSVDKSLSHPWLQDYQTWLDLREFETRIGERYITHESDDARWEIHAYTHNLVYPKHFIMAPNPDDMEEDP

[12] = target: Ephrin type-A receptor 5 (Homo sapiens) (UniProt P54756); experiment: Inhibition of recombinant human EphA5 (655 to 956 residues) assessed as residual activity at 10 uM using poly(Glu, Tyr) 4:1 as substrate measured after 40 mins in presence of [gamma33P]ATP by scintillation counting method
HCT-116 [13] = experiment: Induction of apoptosis in human HCT116 cells assessed as increase in cleaved PARP expression up to 200 nM measured after 48 hrs by Western blot analysis; assay type: functional, cell-based
[14] = target: Ephrin type-A receptor 3 (Homo sapiens) (UniProt P29320); experiment: Inhibition of recombinant human EphA3 (578 to end residues) assessed as residual activity at 10 uM using poly(Glu, Tyr) 4:1 as substrate measured after 40 mins in presence of [gamma33P]ATP by scintillation counting method
Chain of Ephrin type-A receptor 3 (Homo sapiens) (P29320 whole entry): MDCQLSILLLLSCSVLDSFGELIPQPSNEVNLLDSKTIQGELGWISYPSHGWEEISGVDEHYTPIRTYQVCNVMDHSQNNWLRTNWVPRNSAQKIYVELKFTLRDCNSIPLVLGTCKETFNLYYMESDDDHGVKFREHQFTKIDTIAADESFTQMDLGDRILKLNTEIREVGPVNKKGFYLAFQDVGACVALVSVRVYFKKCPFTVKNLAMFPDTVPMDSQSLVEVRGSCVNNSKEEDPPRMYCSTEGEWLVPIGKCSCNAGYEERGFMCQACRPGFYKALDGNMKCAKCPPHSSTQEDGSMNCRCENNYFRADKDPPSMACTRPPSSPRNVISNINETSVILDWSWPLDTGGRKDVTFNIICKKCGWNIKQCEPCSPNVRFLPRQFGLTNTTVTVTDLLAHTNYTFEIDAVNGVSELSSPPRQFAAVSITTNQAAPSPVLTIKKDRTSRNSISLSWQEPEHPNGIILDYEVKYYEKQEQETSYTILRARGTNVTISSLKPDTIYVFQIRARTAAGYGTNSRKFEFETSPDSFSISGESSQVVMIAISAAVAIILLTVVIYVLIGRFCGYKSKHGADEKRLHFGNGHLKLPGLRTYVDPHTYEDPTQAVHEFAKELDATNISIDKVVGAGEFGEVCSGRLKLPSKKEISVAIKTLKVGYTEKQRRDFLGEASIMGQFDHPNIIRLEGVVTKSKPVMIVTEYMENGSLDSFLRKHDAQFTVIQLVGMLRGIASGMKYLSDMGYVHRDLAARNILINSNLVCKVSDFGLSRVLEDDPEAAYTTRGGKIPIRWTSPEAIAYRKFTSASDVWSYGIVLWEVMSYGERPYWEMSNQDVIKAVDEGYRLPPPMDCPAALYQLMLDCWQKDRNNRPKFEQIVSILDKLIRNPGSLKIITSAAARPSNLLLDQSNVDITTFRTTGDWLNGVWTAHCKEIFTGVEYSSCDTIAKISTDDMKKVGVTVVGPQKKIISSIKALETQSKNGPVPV

[15] = target: MAP kinase-interacting serine/threonine-protein kinase 2 (Homo sapiens) (UniProt Q9HBH9); experiment: Inhibition of recombinant full-length human Mnk2 assessed as residual activity at 10 uM using myelin basic protein as substrate measured after 40 mins in presence of [gamma33P]ATP by scintillation counting method
[16] = Toxicity in nude BALB/c mouse assessed as change in ALT level at 40 to 80 mg/kg, po once daily for 4 weeks measured post-last dose; assay type: organism-based; details: in vivo, 672 h
[17] = system: Dual specificity protein kinase TTK (Homo sapiens), P33981 [S389A]; experiment: Inhibition of recombinant full-length human TTK S389A mutant assessed as residual activity at 10 uM using MBP as substrate measured after 40 mins in presence of [gamma33P]ATP by scintillation counting method
[18] = target: PAS domain-containing serine/threonine-protein kinase (Homo sapiens) (UniProt Q96RG2); experiment: Inhibition of recombinant human PASK (995 to end residues) assessed as residual activity at 10 uM using KKLNRTLSFAEPG as substrate measured after 40 mins in presence of [gamma33P]ATP by scintillation counting method
[19] = target: Bone morphogenetic protein receptor type-1B (Homo sapiens) (UniProt O00238); experiment: Inhibition of recombinant human ALK6 (148 to end residues) assessed as residual activity at 10 uM using casein as substrate measured after 40 mins in presence of [gamma33P]ATP by scintillation counting method
[20] = target: CDK6/cyclin D3 (Homo sapiens) (UniProt P30281+Q00534); experiment: Inhibition of recombinant full-length human CDK6/cyclin D3 assessed as residual activity at 10 uM using histone H1 as substrate measured after 40 mins in presence of [gamma33P]ATP by scintillation counting method; assay type: protein-complex assay
[21] = target: MAP/microtubule affinity-regulating kinase 4 (Homo sapiens) (UniProt Q96L34); experiment: Inhibition of recombinant full-length human MARK4 assessed as residual activity at 10 uM using KKKVSRSGLYRSPSMPENLNRPR as substrate measured after 40 mins in presence of [gamma33P]ATP by scintillation counting method
Tubulin (Sus scrofa) = Tubulin (Sus scrofa) (UniProt P02554+P02550); experiment: Inhibition of porcine brain tubulin polymerization at 0.05 to 30 uM by fluorescence assay
HCT-116 [22] = experiment: Cell cycle arrest in human HCT116 cells assessed as up regulation of CyclinB1 expression up to 150 nM after 24 hrs by Western blot analysis; assay type: functional, cell-based
Homo sapiens = organism: Homo sapiens; experiment: Inhibition of recombinant full-length human PI3K p110alpha/p65alpha (1 to 571 residues) assessed as residual activity at 10 uM using phosphatidylinositol-4, 5-bisphosphate as substrate measured after 40 mins by HTRF assay
PLC-PRF-5 = experiment: Antiproliferative activity against human PLC/PRF/5 cells assessed as reduction in cell viability after 72 hrs by MTT assay; assay type: functional, cell-based; details: PLC-PRF-5, 72 h
[23] = target: Tau-tubulin kinase 1 (Homo sapiens) (UniProt Q5TCY1); experiment: Inhibition of human TTBK1 (1 to 479 residues) using Casein as substrate measured after 40 mins in presence of [gamma33P]ATP by scintillation counting method; parameters: scale not given: the % may be the effect or the level left

Cc1cc(C)c(CNc2nc(Cl)nc3c2ncn3C2CCCC2)c(=O)[nH]1
Activity [1]: 114%
Activity [2]: 131%
Activity [3]: Non-Toxic
Activity [4]: 95%
Activity [5]: 104%
inhibition in vivo at 40 mg/kg (HCT-116 [6]): 39.9%
Activity [7]: 99.5%
Activity [8]: 104%
Activity [9]: 98%
Activity [10]: 104%
Activity [11]: 106%
Activity [12]: 99%
Activity (HCT-116 [13]): Active
Activity [14]: 102%
Activity [15]: 88%
Activity [16]: Non-Toxic
Activity [17]: 99.5%
Activity [18]: 100%
Activity [19]: 103%
Activity [20]: 98.5%
Activity [21]: 123%
inhibition (Tubulin (Sus scrofa)): Active
Activity (HCT-116 [22]): Active
Activity (Homo sapiens): 93%
IC50 (PLC-PRF-5): 286 nM
Activity [23]: 102%
